# Measured values as given in the kinase profiling compilation of Christmann-Franck et al. (2016).
# Tests used:
# Assay in all cases: KINOMEscan competition binding
# Conditions in all cases: compound 10.0 µM
# NTRK3 (human) = NTRK3 (human) (UniProt Q16288)
# EPHB2 (human) = EPHB2 (human) (UniProt P29323)
# DDR1 (human) = DDR1 (human) (UniProt Q08345)
# DYRK1B (human) = DYRK1B (human) (UniProt Q9Y463)
# ACVR2B (human) = ACVR2B (human) (UniProt Q13705)
# CHEK2 (human) = CHEK2 (human) (UniProt O96017)
# TSSK1B (human) = TSSK1B (human) (UniProt Q9BXA7)
# ALK (human) = ALK (human) (UniProt Q9UM73)
# Sequence of ALK (human) (Q9UM73 whole entry, looked up): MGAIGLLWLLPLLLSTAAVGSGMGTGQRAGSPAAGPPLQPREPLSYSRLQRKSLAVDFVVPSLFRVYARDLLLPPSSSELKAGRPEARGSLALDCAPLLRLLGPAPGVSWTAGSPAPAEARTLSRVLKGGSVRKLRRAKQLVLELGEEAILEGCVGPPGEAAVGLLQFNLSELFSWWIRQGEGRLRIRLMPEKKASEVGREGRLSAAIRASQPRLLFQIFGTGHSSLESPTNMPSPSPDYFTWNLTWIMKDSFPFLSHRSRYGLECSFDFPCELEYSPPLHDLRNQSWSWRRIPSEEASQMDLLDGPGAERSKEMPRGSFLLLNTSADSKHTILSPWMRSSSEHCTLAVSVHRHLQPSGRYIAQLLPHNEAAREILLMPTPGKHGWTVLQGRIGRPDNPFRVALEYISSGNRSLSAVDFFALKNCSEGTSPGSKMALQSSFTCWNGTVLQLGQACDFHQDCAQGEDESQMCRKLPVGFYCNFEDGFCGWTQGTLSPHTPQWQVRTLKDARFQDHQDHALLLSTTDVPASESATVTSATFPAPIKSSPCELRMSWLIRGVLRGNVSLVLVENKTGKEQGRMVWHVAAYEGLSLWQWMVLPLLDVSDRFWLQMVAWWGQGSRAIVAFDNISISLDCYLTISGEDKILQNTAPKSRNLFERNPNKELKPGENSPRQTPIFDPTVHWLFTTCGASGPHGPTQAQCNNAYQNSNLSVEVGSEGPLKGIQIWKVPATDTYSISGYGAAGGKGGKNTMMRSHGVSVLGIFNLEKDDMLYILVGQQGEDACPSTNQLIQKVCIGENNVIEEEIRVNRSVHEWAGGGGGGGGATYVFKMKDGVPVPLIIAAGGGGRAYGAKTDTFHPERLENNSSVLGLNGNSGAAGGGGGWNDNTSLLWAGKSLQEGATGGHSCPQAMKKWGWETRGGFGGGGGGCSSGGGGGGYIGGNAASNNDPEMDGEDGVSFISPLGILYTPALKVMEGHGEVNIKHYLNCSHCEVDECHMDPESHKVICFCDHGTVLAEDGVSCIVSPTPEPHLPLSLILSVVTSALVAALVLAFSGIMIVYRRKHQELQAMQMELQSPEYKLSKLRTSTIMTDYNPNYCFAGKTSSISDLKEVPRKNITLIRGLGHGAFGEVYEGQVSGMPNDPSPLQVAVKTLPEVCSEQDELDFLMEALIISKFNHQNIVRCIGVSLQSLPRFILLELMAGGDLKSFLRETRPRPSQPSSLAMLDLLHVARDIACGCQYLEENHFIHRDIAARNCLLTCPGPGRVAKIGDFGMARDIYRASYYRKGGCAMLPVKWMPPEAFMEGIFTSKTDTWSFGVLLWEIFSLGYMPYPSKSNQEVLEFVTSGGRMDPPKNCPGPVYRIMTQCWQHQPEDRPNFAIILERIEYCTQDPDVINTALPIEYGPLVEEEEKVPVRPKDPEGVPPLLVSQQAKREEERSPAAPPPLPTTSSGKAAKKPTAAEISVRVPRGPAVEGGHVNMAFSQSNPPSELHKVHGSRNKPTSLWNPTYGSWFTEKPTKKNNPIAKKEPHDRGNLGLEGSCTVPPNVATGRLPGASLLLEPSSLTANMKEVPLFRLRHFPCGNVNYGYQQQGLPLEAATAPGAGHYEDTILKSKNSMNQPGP
# CDC2L2 (human) = CDC2L2 (human) (UniProt Q9UQ88)
# STK32B (human) = STK32B (human) (UniProt Q9NY57)
# EPHA2 (human) = EPHA2 (human) (UniProt P29317)
# TEC (human) = TEC (human) (UniProt P42680)
# MYLK3 (human) = MYLK3 (human) (UniProt Q32MK0)
# Sequence of MYLK3 (human) (Q32MK0 whole entry, looked up): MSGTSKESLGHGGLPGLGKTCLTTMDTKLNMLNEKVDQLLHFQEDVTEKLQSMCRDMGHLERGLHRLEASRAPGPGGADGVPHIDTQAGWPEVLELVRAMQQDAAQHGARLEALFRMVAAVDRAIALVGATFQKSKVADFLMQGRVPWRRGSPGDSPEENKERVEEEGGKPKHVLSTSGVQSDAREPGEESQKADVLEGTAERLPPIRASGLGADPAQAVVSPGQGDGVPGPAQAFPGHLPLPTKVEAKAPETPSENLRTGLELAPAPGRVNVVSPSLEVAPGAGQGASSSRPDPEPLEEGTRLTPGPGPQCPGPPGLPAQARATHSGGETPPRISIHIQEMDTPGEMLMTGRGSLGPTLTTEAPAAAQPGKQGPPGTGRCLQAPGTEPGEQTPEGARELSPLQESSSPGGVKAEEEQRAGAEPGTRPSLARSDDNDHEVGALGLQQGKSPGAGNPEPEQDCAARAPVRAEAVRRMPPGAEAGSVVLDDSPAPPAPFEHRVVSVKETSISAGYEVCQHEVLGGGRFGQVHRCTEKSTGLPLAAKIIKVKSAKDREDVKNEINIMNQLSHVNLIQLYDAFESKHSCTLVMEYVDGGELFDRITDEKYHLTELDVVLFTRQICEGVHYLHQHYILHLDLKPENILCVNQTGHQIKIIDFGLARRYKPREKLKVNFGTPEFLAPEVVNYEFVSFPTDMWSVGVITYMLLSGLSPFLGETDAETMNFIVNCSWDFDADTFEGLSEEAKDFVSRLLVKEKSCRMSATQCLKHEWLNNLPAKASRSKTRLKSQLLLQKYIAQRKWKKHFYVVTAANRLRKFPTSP
# MERTK (human) = MERTK (human) (UniProt Q12866)
# CAMK2D (human) = CAMK2D (human) (UniProt Q13557)
# Sequence of CAMK2D (human) (Q13557 whole entry, looked up): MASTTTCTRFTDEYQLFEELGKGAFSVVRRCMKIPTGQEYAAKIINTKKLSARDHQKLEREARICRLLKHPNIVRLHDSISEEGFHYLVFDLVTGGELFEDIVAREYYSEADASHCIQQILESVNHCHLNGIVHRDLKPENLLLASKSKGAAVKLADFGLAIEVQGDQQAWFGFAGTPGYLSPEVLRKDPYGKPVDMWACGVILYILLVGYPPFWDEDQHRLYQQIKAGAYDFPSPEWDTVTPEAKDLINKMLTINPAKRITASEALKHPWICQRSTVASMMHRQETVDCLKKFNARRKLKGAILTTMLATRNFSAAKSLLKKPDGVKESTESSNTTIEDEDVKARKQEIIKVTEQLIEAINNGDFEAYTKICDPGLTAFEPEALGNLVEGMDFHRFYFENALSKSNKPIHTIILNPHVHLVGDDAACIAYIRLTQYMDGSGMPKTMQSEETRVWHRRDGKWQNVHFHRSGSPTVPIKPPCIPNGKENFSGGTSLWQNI
# PIP4K2B (human) = PIP4K2B (human) (UniProt P78356)
# MAPK11 (human) = MAPK11 (human) (UniProt Q15759)
# EPHA1 (human) = EPHA1 (human) (UniProt P21709)
# PAK6 (human) = PAK6 (human) (UniProt Q9NQU5)
# CDK2 (human) = CDK2 (human) (UniProt P24941)
# BMPR2 (human) = BMPR2 (human) (UniProt Q13873)
# SRPK3 (human) = SRPK3 (human) (UniProt Q9UPE1)
# TGFBR2 (human) = TGFBR2 (human) (UniProt P37173)
# Sequence of TGFBR2 (human) (P37173 whole entry, looked up): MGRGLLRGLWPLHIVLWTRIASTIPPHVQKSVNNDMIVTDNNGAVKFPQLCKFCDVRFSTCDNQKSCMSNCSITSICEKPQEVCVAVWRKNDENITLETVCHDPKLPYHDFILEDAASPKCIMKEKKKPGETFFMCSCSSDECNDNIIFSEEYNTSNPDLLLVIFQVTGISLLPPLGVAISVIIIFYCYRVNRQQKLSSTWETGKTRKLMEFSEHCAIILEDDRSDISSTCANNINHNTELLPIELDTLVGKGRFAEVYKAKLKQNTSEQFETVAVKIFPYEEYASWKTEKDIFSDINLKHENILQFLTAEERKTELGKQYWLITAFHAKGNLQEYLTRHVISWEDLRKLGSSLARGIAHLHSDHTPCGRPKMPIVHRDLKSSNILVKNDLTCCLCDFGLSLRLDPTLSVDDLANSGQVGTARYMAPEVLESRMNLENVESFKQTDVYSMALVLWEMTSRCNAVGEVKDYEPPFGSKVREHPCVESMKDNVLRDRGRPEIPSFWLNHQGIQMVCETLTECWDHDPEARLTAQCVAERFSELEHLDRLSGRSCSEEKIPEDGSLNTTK
# PRKD2 (human) = PRKD2 (human) (UniProt Q9BZL6)
# MAP2K2 (human) = MAP2K2 (human) (UniProt P36507)
# ROCK2 (human) = ROCK2 (human) (UniProt O75116)
# AAK1 (human) = AAK1 (human) (UniProt Q2M2I8)
# CSNK1G2 (human) = CSNK1G2 (human) (UniProt P78368)
# STK33 (human) = STK33 (human) (UniProt Q9BYT3)
# NUAK1 (human) = NUAK1 (human) (UniProt O60285)
# CAMK1D (human) = CAMK1D (human) (UniProt Q8IU85)
# BLK (human) = BLK (human) (UniProt P51451)
# RPS6KA3 KD1 (human) = RPS6KA3 KD1 (human) (UniProt P51812)
# EGFR (human) = EGFR (human) (UniProt P00533)
# Sequence of DDR1 (human) (Q08345 whole entry, looked up): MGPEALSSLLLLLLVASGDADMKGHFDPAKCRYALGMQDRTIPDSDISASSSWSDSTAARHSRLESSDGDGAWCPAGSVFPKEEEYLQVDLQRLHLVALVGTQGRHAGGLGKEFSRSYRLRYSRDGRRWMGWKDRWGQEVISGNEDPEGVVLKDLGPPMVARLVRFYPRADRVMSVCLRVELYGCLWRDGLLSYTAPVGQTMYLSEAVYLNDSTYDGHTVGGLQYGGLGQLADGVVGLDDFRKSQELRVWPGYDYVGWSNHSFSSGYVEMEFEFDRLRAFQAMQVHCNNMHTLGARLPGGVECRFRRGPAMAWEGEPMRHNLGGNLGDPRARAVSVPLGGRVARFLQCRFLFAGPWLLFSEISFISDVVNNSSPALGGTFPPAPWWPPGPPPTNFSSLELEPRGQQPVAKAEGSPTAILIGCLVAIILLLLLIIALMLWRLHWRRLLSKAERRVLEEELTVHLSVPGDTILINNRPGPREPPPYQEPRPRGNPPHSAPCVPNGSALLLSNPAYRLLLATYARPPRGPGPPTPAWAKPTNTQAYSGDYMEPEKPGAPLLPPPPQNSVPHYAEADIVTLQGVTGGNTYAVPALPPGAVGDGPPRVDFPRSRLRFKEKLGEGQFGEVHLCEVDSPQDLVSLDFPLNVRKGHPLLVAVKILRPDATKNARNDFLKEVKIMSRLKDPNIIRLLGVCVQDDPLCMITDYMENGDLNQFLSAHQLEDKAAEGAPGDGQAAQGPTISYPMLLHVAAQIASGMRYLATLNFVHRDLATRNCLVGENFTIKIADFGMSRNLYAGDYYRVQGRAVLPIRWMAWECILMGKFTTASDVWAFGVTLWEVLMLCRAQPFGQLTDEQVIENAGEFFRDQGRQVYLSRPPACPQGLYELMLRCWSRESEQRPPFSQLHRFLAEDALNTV
# Sequence of ACVR2B (human) (Q13705 whole entry, looked up): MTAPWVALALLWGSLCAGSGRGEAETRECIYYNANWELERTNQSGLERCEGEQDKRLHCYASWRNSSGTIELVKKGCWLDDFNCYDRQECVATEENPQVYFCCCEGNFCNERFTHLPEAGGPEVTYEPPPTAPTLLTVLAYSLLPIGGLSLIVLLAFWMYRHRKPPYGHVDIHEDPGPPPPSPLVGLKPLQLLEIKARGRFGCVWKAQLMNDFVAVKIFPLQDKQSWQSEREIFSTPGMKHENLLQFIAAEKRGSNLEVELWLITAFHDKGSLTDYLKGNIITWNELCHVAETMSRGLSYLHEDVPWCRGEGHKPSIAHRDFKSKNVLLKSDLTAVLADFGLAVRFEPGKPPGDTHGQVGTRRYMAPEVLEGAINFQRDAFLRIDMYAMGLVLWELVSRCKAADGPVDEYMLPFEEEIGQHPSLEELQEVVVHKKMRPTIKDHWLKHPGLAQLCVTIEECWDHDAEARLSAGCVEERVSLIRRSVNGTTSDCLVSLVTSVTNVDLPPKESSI
Structure (SMILES),"kinase still bound, per cent of control (NTRK3 (human))","kinase still bound, per cent of control (EPHB2 (human))","kinase still bound, per cent of control (DDR1 (human))","kinase still bound, per cent of control (DYRK1B (human))","kinase still bound, per cent of control (ACVR2B (human))","kinase still bound, per cent of control (TSSK1B (human))","kinase still bound, per cent of control (ALK (human))","kinase still bound, per cent of control (CDC2L2 (human))","kinase still bound, per cent of control (STK32B (human))","kinase still bound, per cent of control (EPHA2 (human))","kinase still bound, per cent of control (TEC (human))","kinase still bound, per cent of control (MYLK3 (human))","kinase still bound, per cent of control (MERTK (human))","kinase still bound, per cent of control (CAMK2D (human))","kinase still bound, per cent of control (PIP4K2B (human))","kinase still bound, per cent of control (MAPK11 (human))","kinase still bound, per cent of control (EPHA1 (human))","kinase still bound, per cent of control (PAK6 (human))","kinase still bound, per cent of control (CDK2 (human))","kinase still bound, per cent of control (BMPR2 (human))",also measured
Cc1n[nH]c2ccc(-c3cncc(OC[C@@H](N)Cc4c[nH]c5ccccc45)c3)cc12,100%,100%,100%,0%,100%,100%,100%,100%,100%,100%,100%,2.8%,33%,2.5%,5.4%,100%,100%,16%,100%,100%,"kinase still bound, per cent of control (CHEK2 (human)): 100%; kinase still bound, per cent of control (SRPK3 (human)): 0.95%; kinase still bound, per cent of control (TGFBR2 (human)): 100%; kinase still bound, per cent of control (PRKD2 (human)): 0%; kinase still bound, per cent of control (MAP2K2 (human)): 100%; kinase still bound, per cent of control (ROCK2 (human)): 0%; kinase still bound, per cent of control (AAK1 (human)): 1.8%; kinase still bound, per cent of control (CSNK1G2 (human)): 0.65%; kinase still bound, per cent of control (STK33 (human)): 2.6%; kinase still bound, per cent of control (NUAK1 (human)): 100%; kinase still bound, per cent of control (CAMK1D (human)): 11%"
CCN(CC)CCCCNc1ncc2cc(-c3cc(OC)cc(OC)c3)c(NC(=O)NC(C)(C)C)nc2n1,100%,100%,1.1%,100%,100%,100%,100%,100%,100%,100%,100%,100%,100%,100%,100%,100%,100%,100%,100%,100%,"kinase still bound, per cent of control (BLK (human)): 100%; kinase still bound, per cent of control (RPS6KA3 KD1 (human)): 100%; kinase still bound, per cent of control (TGFBR2 (human)): 100%; kinase still bound, per cent of control (PRKD2 (human)): 100%; kinase still bound, per cent of control (MAP2K2 (human)): 100%; kinase still bound, per cent of control (AAK1 (human)): 100%; kinase still bound, per cent of control (CSNK1G2 (human)): 100%; kinase still bound, per cent of control (STK33 (human)): 100%; kinase still bound, per cent of control (NUAK1 (human)): 100%; kinase still bound, per cent of control (CAMK1D (human)): 100%"
CNC(=O)c1ccc(Nc2cc(Nc3ccccc3S(=O)(=O)C(C)C)c3cc[nH]c3n2)nc1,0.4%,100%,100%,8.8%,100%,100%,1.8%,100%,100%,100%,2.6%,100%,0.25%,100%,3.8%,100%,100%,100%,100%,7.9%,"kinase still bound, per cent of control (BLK (human)): 0.55%; kinase still bound, per cent of control (CHEK2 (human)): 100%; kinase still bound, per cent of control (SRPK3 (human)): 12%; kinase still bound, per cent of control (RPS6KA3 KD1 (human)): 25%; kinase still bound, per cent of control (TGFBR2 (human)): 100%; kinase still bound, per cent of control (PRKD2 (human)): 100%; kinase still bound, per cent of control (MAP2K2 (human)): 5.2%; kinase still bound, per cent of control (ROCK2 (human)): 0.95%; kinase still bound, per cent of control (AAK1 (human)): 11%; kinase still bound, per cent of control (CSNK1G2 (human)): 3.1%; kinase still bound, per cent of control (STK33 (human)): 1.4%; kinase still bound, per cent of control (EGFR (human)): 100%; kinase still bound, per cent of control (NUAK1 (human)): 0.95%; kinase still bound, per cent of control (CAMK1D (human)): 100%"
C=CC(=O)Nc1ccc(CN(C(=O)Nc2c(Cl)c(OC)cc(OC)c2Cl)c2cc(Nc3ccc(N4CCN(C)CC4)cc3)ncn2)cc1,100%,100%,0%,100%,100%,100%,100%,100%,100%,100%,7.2%,100%,100%,100%,100%,100%,100%,100%,100%,8.9%,"kinase still bound, per cent of control (BLK (human)): 0.1%; kinase still bound, per cent of control (CHEK2 (human)): 100%; kinase still bound, per cent of control (SRPK3 (human)): 100%; kinase still bound, per cent of control (RPS6KA3 KD1 (human)): 100%; kinase still bound, per cent of control (TGFBR2 (human)): 100%; kinase still bound, per cent of control (PRKD2 (human)): 100%; kinase still bound, per cent of control (MAP2K2 (human)): 100%; kinase still bound, per cent of control (ROCK2 (human)): 100%; kinase still bound, per cent of control (AAK1 (human)): 100%; kinase still bound, per cent of control (CSNK1G2 (human)): 100%; kinase still bound, per cent of control (STK33 (human)): 31%; kinase still bound, per cent of control (EGFR (human)): 0.35%; kinase still bound, per cent of control (NUAK1 (human)): 100%; kinase still bound, per cent of control (CAMK1D (human)): 100%"
